From patent US4172145A, “Benzo(b)furylacetic acid derivatives to reduce inflammation” (priority 1975, dated 1979)
Where two headings read alike, the source gives them in different places.

Columns and labels:
[1] = tested on: pain threshold of inflamed and not inflamed paws of rats; experiment: Analgesic activity in rats (Randall-Selitto Method); type: in vivo, rat (male Wister strain); details: Rattus norvegicus, po, read-out: Analgesic Coefficient; for change in vivo at 150 mg/kg: P.O. 150 mg/kg
Protocol: A group consisting of 6-7 rats (male Wister strain; weight: 100-120 g) was used for the test and control groups in this test. Each rat of both groups was treated with 0.1 ml of a 1% carrageenin solution as phlogistic agent by subcutaneous injection in one hind paw. 3 hours after the administration, pressure was applied to the treated paw of each rat by means of a pressing device (manufactured by Ugobasile S. A., Italy). The threshold of pain induced by press was measured with reference to the shriek and struggle according to the method of Randall and Selitto [Randall, L. O. and Selitto, J. J.; Arch, Int. Pharmocodyn., 111, 409 (1957)]. From each group 5 rats having a good response reaction, i.e. the pain threshold was not more than 70 g, were respectively selected. […] 1, 2 and 3 hours after administration, pressure was again applied to both the inflamed and not inflamed paws of the test rats and the pain threshold was measured. On the other hand, without the administration of the active compound, the pressure was applied to both the inflamed and not inflamed paws of the selected 5 rats of the control group and the pain threshold was measured. The inflamed paws of the test and control groups were compared with each other. Also the not inflamed paws of the both groups were compared with each other.
The analgesic coefficient was calculated by means of the following equation, and the larger analgesic coefficient the better analgesic activity. [formula] in which X: analgesic coefficient (%)
P1 : threshold (g) of the test rats administered with active compounds
P2 : threshold (g) of the control rats without administration of active compound

[2] = tested on: acetic acid-induced writhing reactions in mice; experiment: Analgesic activity in mice (AcOH Writhing Method); type: in vivo, mouse (male dd-strain); details: mouse, oral; for inhibition in vivo at 150 mg/kg / inhibition in vivo at 300 mg/kg: 1 h before acetic acid; for ED50: read-out: Analgesic Effect (AcOH Writhing Method), ED50
Protocol: In this test, three groups, each consisting of 10 mice (male dd-strain; weight: 19-21 g) were used. The compounds shown in Table 3 were administered orally to the test mice. One hour after the administration, the mice were treated with 0.1 ml/10 g of 0.7% acetic acid solution in physiological saline by intraperitoneal injection according to the method of Koster et al [Koster, R., et al; Fed. Proc., 18, 412 (1959)]. Ten minutes after the treatment, the number of writhing reactions occurring in the mice was counted.

in vivo [3] = details: rat, po
Protocol: A test group consisting of 10-15 rats (male Wistar strain; weight: 180-220 g) was used in this test. Each rat was fasted for 20 hours, but water was allowed ad libitum. The compounds shown in Table 5 were administered orally. After a 20-hour interval during which the rats were not fed but were allowed water, each rat was administered under ether anesthesia with 0.5 ml per 100 g body weight of a 5% solution of pontamine sky blue 6BX in saline (pH 7.2--adjusted with 0.5 N HCl) by intravenous injection. 15 minutes after administration each rat was killed. The stomach was removed and maintained in a 1% formalin solution. After about 2 hours, the stomach was opened along the greater curvature and the length of lesions (dark blue areas against pale blue background) in the glandular portion was measured under a dissecting microscope (10×) provided with a square grid. The sum of the lengths (mm) of lesions was used as ulcer index.

in vivo [4] = details: oral, observed one week, Litchfield and Wilcoxon
Protocol: In this test, five groups, each consisting of 5 mice (male dd strain; weight: 19-21 g) and 5 rats (male Wistar strain; weight: 100-120 g) were used. […] The LD50 was calculated according to the method of Litchfield and Wilcoxon [Journal of Pharmacol. and Exper. Therap.

[5] = tested on: carrageenin-induced edema on the hind paw of rats; experiment: Anti-edema effect on carrageenin-induced edema on the hind paw of rats (Carrageenin Edema Method); type: in vivo, rat (male Wistar strain); details: rat, oral, 3 hours after carrageenin
Protocol: The anti-edema effect was determined according to the method of Yamazaki et al [Yamazaki, H., et al; Folia Pharmacologica Japonica, 63, 302 (1967)].
In this test, a group consisting of five rats (male Wistar strain: weight 100-120 g) was used for the test and control groups. The compounds shown in Table 2 were administered orally to the rats of the test group. After one hour, 0.1 ml of a 1% carrageenin solution (phlogistic agent) was further administered to each rat by subcutaneous injection in one hind paw. To each rat of the control group, 0.1 ml of a 1% carrageenin solution was also administered in a similar manner to that for test rats. 1, 3 and 5 hours after administration of the phlogistic agent, the swelling ratio was calculated by means of the following equation: […]
Test group [formula] in which b: swelling ratio
B: volume of a hind paw without administration of phlogistic agent
B': volume of a hind paw administered with phlogistic agent
Control group [formula] in which a: swelling ratio
A: volume of a hind paw without administration of phlogistic agent
A': volume of a hind paw administered with phlogistic agent
The anti-edema effect was expressed as the suppression ratio of the edema in comparison with the control group to which the test compound had not been administered. The suppression ratio of the edema was determined 3 hours after administration of the phlogistic agent and was calculated by means of the following equation: [formula] in which a and b are as hereinbefore defined.

[6] = Eur. J. Med. Chem. 1975-10, N. 2, p. 182-186; cited from earlier work
[7] = Eur. J. Med. Chem. 1975-10, N. 2, p. 182-186; cited from earlier work; remark: listed apart in the source
[8] = read-out: Analgesic Effect (AcOH Writhing Method), Suppression Ratio
[9] = mouse, read-out: Acute Toxicity (P.O.), LD50, Mouse
[10] = rat, read-out: Acute Toxicity (P.O.), LD50, Rat
[11] = read-out: Anti-edema Effect, Suppression Ratio

Row | Structure (SMILES) | change in vivo at 150 mg/kg ([1]; 1 h, inflamed paw, 1 hr.) [%] | change in vivo at 150 mg/kg ([1]; 1 h, not inflamed paw, 1 hr.) [%] | change in vivo at 150 mg/kg ([1]; 2 h, inflamed paw, 2 hr.) [%] | change in vivo at 150 mg/kg ([1]; 2 h, not inflamed paw, 2 hr.) [%] | change in vivo at 150 mg/kg ([1]; 3 h, inflamed paw, 3 hr.) [%] | change in vivo at 150 mg/kg ([1]; 3 h, not inflamed paw, 3 hr.) [%] | inhibition in vivo at 150 mg/kg [2, 8] [%] | inhibition in vivo at 300 mg/kg [2, 8] [%] | ED50 [2] [mg/kg] | TD50 at 20 h (in vivo [3]) [mg/kg] | LD50 at 168 h (in vivo [4]; [9]) [mg/kg] | LD50 at 168 h (in vivo [4]; [10]) [mg/kg] | inhibition in vivo at 75 mg/kg [5, 11] [%] | inhibition in vivo at 150 mg/kg [5, 11] [%] | inhibition in vivo at 300 mg/kg [5, 11] [%] | ED50 [5] [mg/kg] | toxicity versus phenylbutazone [6] | anti-inflammatory activity versus phenylbutazone [7] | other results
1 | Cc1c(CC(=O)O)oc2ccc(F)cc12 [Test Compound 5, 5-fluoro-3-methyl-2-benzo(b)furylacetic acid] | 38.6 | 0 | 23.5 | 0 | 19.3 | 0 | 26 | 41.4 | 380 | > 300 | 1750 | > 1000 | 37.9 | 60 | 71.9 | 105 |  |  | 
2 | CCCCC1C(=O)N(c2ccccc2)N(c2ccccc2)C1=O [Phenylbutazone, reference compound] |  |  |  |  |  |  |  |  |  | 76 |  |  |  |  |  |  |  |  | change in vivo at 100 mg/kg ([1]; 1 h, P.O. 100 mg/kg (** on upper line only), not inflamed paw, 1 hr.): 3.8%; change in vivo at 100 mg/kg ([1]; 1 h, P.O. 100 mg/kg, inflamed paw, 1 hr.): 20.7%; change in vivo at 100 mg/kg ([1]; 2 h, P.O. 100 mg/kg (** on upper line only), not inflamed paw, 2 hr.): 5.4%; change in vivo at 100 mg/kg ([1]; 2 h, P.O. 100 mg/kg, inflamed paw, 2 hr.): 23.2%; change in vivo at 100 mg/kg ([1]; 3 h, P.O. 100 mg/kg (** on upper line only), not inflamed paw, 3 hr.): 2%; change in vivo at 100 mg/kg ([1]; 3 h, P.O. 100 mg/kg, inflamed paw, 3 hr.): 27.7%; inhibition in vivo at 100 mg/kg ([2]; 100 mg/kg (footnote *; printed in 75 mg/kg column), read-out: Analgesic Effect (AcOH Writhing Method), Suppression Ratio): 20.8%; inhibition in vivo at 200 mg/kg ([2]; 200 mg/kg (footnote **; printed in 150 mg/kg column), read-out: Analgesic Effect (AcOH Writhing Method), Suppression Ratio): 28.2%; inhibition in vivo at 100 mg/kg ([5]; 100 mg/kg (footnote *; printed in 75 mg/kg column), read-out: Anti-edema Effect, Suppression Ratio): 42.6%; inhibition in vivo at 200 mg/kg ([5]; 200 mg/kg (footnote **; printed in 150 mg/kg column), read-out: Anti-edema Effect, Suppression Ratio): 53.5%
3 | O=C(O)c1cc2cc(Cl)ccc2o1 [chloro-5-benzo(b)furyl-2 carboxylic acid] |  |  |  |  |  |  |  |  |  |  |  |  |  |  |  |  | minor toxicity than phenylbutazone | lower anti-inflammatory activity | 
4 | COc1ccc2oc(CC(=O)O)cc2c1 [methoxy-5 benzo(b)furyl-2-acetate] |  |  |  |  |  |  |  |  |  |  |  |  |  |  |  |  | minor toxicity than phenylbutazone | lower anti-inflammatory activity | 
5 | O=C(O)Cc1cc2cc(Cl)ccc2o1 [chloro-5 benzoful-2-acetate] |  |  |  |  |  |  |  |  |  |  |  |  |  |  |  |  | minor toxicity than phenylbutazone | lower anti-inflammatory activity | 
6 | Cc1c(CC(=O)O)oc2ccc(Cl)cc12 [Test Compound 2, 5-chloro-3-methyl-2-benzo(b)furylacetic acid] | 25.1 | 0.5 | 17.8 | 1.3 | 16.3 | 2.4 | 35.9 | 68.8 | 190 | 230 | 800 | 425 | 45.7 | 63.3 | 74.2 | 980 |  |  | 
7 | Cc1ccc2oc(CC(=O)O)c(C)c2c1 [Test Compound 4, 3,5-dimethyl-2-benzo(b)furylacetic acid] | 35.4 | 0 | 18.8 | 0 | 7.1 | 0 | 11.2 | 41.4 | 350 | > 300 | 1310 | > 1000 | 43.8 | 56.2 | 70.9 | 100 |  |  | 
8 | COc1ccc2oc(CC(=O)O)c(C)c2c1 [Test Compound 3, 5-methoxy-3-methyl-2-benzo(b)furylacetic acid] | 24.1 | 1.9 | 5.2 | 0 | 0 | 0 | 20.8 | 53.6 | 280 | > 300 | 1110 | > 1000 | 34.5 | 60.8 | 73.1 | 110 |  |  | 
